Structures can show the parent of a compound that is named as a salt.
What was measured:
BRD3-1 = biological target: T1, BRD3-1 (Homo sapiens, UniProt Q15059); assay: BET Bromodomain AlphaScreen assay (Example 9), BRD3-1; type: binding
T1 construct: BRD3-1: Domain 1 of BRD3
Experimental: (§1) The reader assay was a binding assay using the AlphaScreen technology fluorescence energy resonance transfer (FRET) assay. The biotinylated peptide binding to the reader domain of His-tagged protein is monitored by the singlet oxygen transfer from the Streptavidin-coated donor beads to the AlphaScreen Ni-chelate acceptor beads.
(§2) Reaction buffer: 50 mM Hepes, pH7.5, 100 mM NaCl, 0.05% CHAPS, 0.1% BSA, and 1% DMSO (Buffer and DMSO concentration may be different for different reader).
(§3) Biotin-peptide; sequences were different for different targets.
(§4) Reaction Procedure: • 1. Deliver 4× BRD in wells of reaction plate except No BRD control wells. Add buffer instead. • 2. Deliver compounds in 100% DMSO into the BRD mixture by Acoustic technology (Echo550; nanoliter range). Spin down and pre-incubation for 30 min. • 3. Deliver 4× Ligand. Spin and shake. • 4. Incubate for 30 min at room temperature with gentle shaking. • 5. Deliver 4× donor beads. Spin and shake. • 6. Deliver 4× acceptor beads. Spin and shake. Then gentle shaking in the dark for 60 min. • 7.

BRD2-1 = biological target: T2, BRD2-1 (Homo sapiens, UniProt P25440); assay: BET Bromodomain AlphaScreen assay (Example 9), BRD2-1; type: binding
T2 construct: BRD2-1: Domain 1 of BRD2
Experimental: as §1, §2, §3, §4

BRD4-FL = biological target: T3, BRD4-FL (Homo sapiens, UniProt O60885); assay: BET Bromodomain AlphaScreen assay (Example 9), BRD4-FL; type: binding
T3 construct: BRD4-FL: Full length BRD4
Experimental: as §1, §2, §3, §4

[1] = Liver microsome stability, human; type: in vitro ADME; settings: pooled human liver microsomes (50 donors), 1 μM compound, 0.5 mg/ml microsomes, 37° C., read-out: % recovery Human Liver Microsomes (HLM) (30 min)
Experimental: (§5) Working stocks were initially diluted to a concentration of 40.0 μM in 0.1 M potassium phosphate buffer before addition to the reaction vials. Pooled mouse (CD-1, male) or human (50 donors) liver microsomes were utilized at a final concentration of 0.5 mg/ml. Duplicate wells were used for each time point (0 and 30 minutes). Reactions were carried out at 37° C. in a shaker, and the final concentration of DMSO was kept constant at 0.01%. The final volume for each reaction was 100 μL, which includes the addition of an NADPH-Regeneration solution (NRS) mix. This NRS mix was comprised of glucose 6-phosphate dehydrogenase (0.4 U/mL), NADP+ (1.3 mM), MgCl2 (3.3 mM), and glucose 6-phosphate (3.3 mM) in assay mixtures. Upon completion of the 30 minute time point, reactions were terminated by the addition of 1.5-volumes (150 μL) of ice-cold, acetonitrile with 0.5% formic acid and internal standard. Samples were then centrifuged at 4,000 rpm for 10 minutes to remove debris and precipitated protein. Approximately 150 μL of supernatant was subsequently transferred to a new 96 well microplate for LC/MS analysis.
(§6) Narrow-window mass extraction LC/MS analysis was performed for all samples using a Waters Xevo quadrupole time-of-flight (QTof) mass spectrometer and an ACQUITY UPLC system, to determine relative peak areas of parent compound.

[2] = Liver microsome stability, mouse; type: in vitro ADME, mouse (CD-1; settings: male, CD-1, mouse, pooled mouse liver microsomes, 1 μM compound, 0.5 mg/ml microsomes, 37° C., read-out: % recovery Mouse Liver Microsomes (MLM) (30 min)
Experimental: as §5, §6

BRD3-1: Domain 1 of BRD3 = biological target: T4, BRD3-1: Domain 1 of BRD3 (Homo sapiens, UniProt Q15059); assay: Bromodomain binding assay (Example 6), BRD3-1
T4 construct: BRD3-1: Domain 1 of BRD3
Experimental: (§7) The binding of the compounds of the application to bromodomains BRD2, BRD3 and BRD4 was assessed using a time resolved fluorescent resonance energy transfer binding assay (Alpha Screen Technology), that measures the binding of an acetylated histone peptide to the bromodomain protein.
(§8) The bromodomain protein, histone peptide and a variable concentration of test compound were incubated together to reach thermodynamic equilibrium.

BRD2-1: Domain 1 of BRD2 = biological target: T5, BRD2-1: Domain 1 of BRD2 (Homo sapiens, UniProt P25440); assay: Bromodomain binding assay (Example 6), BRD2-1
T5 construct: BRD2-1: Domain 1 of BRD2
Experimental: as §7, §8

[3] = biological target: T6, BRD4-FL: Full length BRD4 (Homo sapiens, UniProt O60885); assay: Bromodomain binding assay (Example 6), BRD4-FL
T6 construct: BRD4-FL: Full length BRD4
Experimental: as §7, §8

T4 sequence (Q15059 34-140 limits assumed): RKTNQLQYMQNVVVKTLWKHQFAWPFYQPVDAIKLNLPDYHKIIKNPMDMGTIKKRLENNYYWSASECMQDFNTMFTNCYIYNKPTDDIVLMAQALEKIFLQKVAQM
T1 sequence (Q15059 34-140 limits assumed): as above
T5 sequence (P25440 74-180 limits assumed): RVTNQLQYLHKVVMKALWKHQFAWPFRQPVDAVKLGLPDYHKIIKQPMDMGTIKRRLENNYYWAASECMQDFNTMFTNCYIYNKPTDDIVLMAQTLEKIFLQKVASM
T2 sequence (P25440 74-180 limits assumed): as above

SMILES	EC50 (BRD3-1) [nM]	EC50 (BRD2-1) [nM]	EC50 (BRD4-FL) [nM]	recovery at 30 min, 1 μM [1] [%]	recovery at 30 min, 1 μM [2] [%]	IC50 (BRD3-1: Domain 1 of BRD3) [nM]	IC50 (BRD2-1: Domain 1 of BRD2) [nM]	IC50 [3] [nM]
COc1cc2c(cc1-c1c(C)noc1C)ncc1nc(C3CCOCC3)n([C@H]3CC[C@H](OC(F)F)CC3)c12 [2(r)]	104	281	406					
COc1cc2c(cc1-c1c(C)noc1C)ncc1nc(CN3CC(F)(F)C3)n([C@H](C)COC(F)F)c12 [3(j)]				6.9	8			
COc1cc2c(cc1-c1c(C)noc1C)ncc1nc(CN3CCC(F)(F)C3)n([C@H](C)COC(F)F)c12 [3(i)]				7.4	10.4			
COc1cc2c(cc1-c1c(C)noc1C)ncc1nc(C3CCOCC3)n(CCOC(F)F)c12 [2(n), 4-[1-[2-(difluoromethoxy)ethyl]-8-methoxy-2-tetrahydropyran-4-yl-imidazo[4,5-c]quinolin-7-yl]-3,5-dimethyl-isoxazole]				58.1	74.8			
CNCc1nc2cnc3cc(-c4c(C)noc4C)c(OC)cc3c2n1[C@H](C)COC(F)F [3(g)]				58.5	0.1			
COc1cc2c(cc1-c1c(C)noc1C)ncc1nc(CN3CCOCC3)n([C@H](C)COC(F)F)c12 [3(a), 4-[[1-[(1R)-2-(difluoromethoxy)-1-methyl-ethyl]-7-(3,5-dimethylisoxazol-4-yl)-8-methoxy-imidazo[4,5-c]quinolin-2-yl]methyl]morpholine trihydrochloride]	10	19.3	9.52	1.9	3.7	10	19	10
COc1cc2c(cc1-c1c(C)noc1C)ncc1nc(C3CCCC3)n([C@H](C)COC(F)F)c12 [2(k), 4-[2-cyclopentyl-1-[(1R)-2-(difluoromethoxy)-1-methyl-ethyl]-8-methoxy-imidazo[4,5-c]quinolin-7-yl]-3,5-dimethyl-isoxazole]				0.1	0.6			
COc1cc2c(cc1-c1c(C)noc1C)ncc1nc(C3CCOCC3)n([C@@H](C)COC(F)F)c12 [2(a), 4-[1-[(1S)-2-(difluoromethoxy)-1-methyl-ethyl]-8-methoxy-2-tetrahydropyran-4-yl-imidazo[4,5-c]quinolin-7-yl]-3,5-dimethyl-isoxazole]	43.8	63.4	40.4			44	63	40
COc1cc2c(cc1-c1c(C)noc1C)ncc1nc(CN(C)C)n([C@H](C)COC(F)F)c12 [3(b).HCl]	17.6	32.3	31.7					
COc1cc2c(cc1-c1c(C)noc1C)ncc1nc(CN(C)C)n([C@H](C)COC(F)F)c12 [3(b), 1-[1-[(1R)-2-(difluoromethoxy)-1-methyl-ethyl]-7-(3,5-dimethylisoxazol-4-yl)-8-methoxy-imidazo[4,5-c]quinolin-2-yl]-N,N-dimethyl-methanamine]				13.7	0.5	18	32	32
COc1cc2c(cc1-c1c(C)noc1C)ncc1nc(CN3CCC(F)(F)CC3)n([C@H](C)COC(F)F)c12 [3(f), 4-[1-[(1R)-2-(difluoromethoxy)-1-methyl-ethyl]-2-[(4,4-difluoro-1-piperidyl)methyl]-8-methoxy-imidazo[4,5-c]quinolin-7-yl]-3,5-dimethyl-isoxazole]				0.6	2.6			
COc1cc2c(cc1-c1c(C)noc1C)ncc1nc(C3CCCCC3)n([C@H](C)COC(F)F)c12 [2(j), 4-[2-cyclohexyl-1-[(1R)-2-(difluoromethoxy)-1-methyl-ethyl]-8-methoxy-imidazo[4,5-c]quinolin-7-yl]-3,5-dimethyl-isoxazole]				1.5	7			

Reference: patent US10259809B2, “Fluorinated imidazo[4,5-C]quinoline derivatives as inhibitors of bromodomain containing proteins” (Trillium Therapeutics Inc., priority 2015, dated 2019)
